Data taken from patent publication US20260250290A1 (BRISTOL-MYERS SQUIBB COMPANY, priority 2023, published 2026).
Structures can show the parent of a compound that is named as a salt.

Target: T1, full length SGK1 (Homo sapiens, UniProt O00141)
T1 construct: 125 μM full length SGK1 (Life Technologies Part #PR7358A); purchased Life Technologies PR7358A
T1 sequence (O00141 1-431): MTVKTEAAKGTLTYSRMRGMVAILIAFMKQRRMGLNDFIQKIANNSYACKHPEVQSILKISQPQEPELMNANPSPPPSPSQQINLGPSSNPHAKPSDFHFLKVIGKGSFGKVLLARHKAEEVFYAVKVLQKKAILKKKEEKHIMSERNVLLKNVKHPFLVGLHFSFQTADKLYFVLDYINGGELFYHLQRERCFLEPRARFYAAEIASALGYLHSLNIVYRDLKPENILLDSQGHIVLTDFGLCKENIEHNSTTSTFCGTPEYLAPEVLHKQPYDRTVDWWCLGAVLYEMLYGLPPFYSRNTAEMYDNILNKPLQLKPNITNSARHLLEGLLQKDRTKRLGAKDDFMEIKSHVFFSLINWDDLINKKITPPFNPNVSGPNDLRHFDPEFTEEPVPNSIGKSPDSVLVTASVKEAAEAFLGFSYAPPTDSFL
Assay: SGK1 inhibition Assay A (Caliper LabChip electrophoretic separation of fluorescent peptide substrate and phosphorylated product)
Type: biochemical
Conditions: Assay A; 20 μM ATP, 40 min incubation; read-out: SGK1 IC50

IC50 [nM] | Compound
1 | Nc1ncnn2c(-c3ccc(-n4cnnn4)c(F)c3)cc(N3CCC[C@@H](NC(=O)c4ccc(Cl)s4)C3)c12 [Example 245, (R)-N-(1-(4-amino-7-(3-fluoro-4-(1H-tetrazol-1-yl)phenyl)pyrrolo[2,1-f][1,2,4]triazin-5-yl)piperidin-3-yl)-5-chlorothiophene-2-carboxamide]
13 | N#Cc1ccc(-c2cc(N3CCC[C@@H](NC(=O)c4sc(Cl)cc4OCC(=O)N4CCCC4)C3)c3c(N)ncnn23)cn1 [Example 420, (R)-N-(1-(4-amino-7-(6-cyanopyridin-3-yl)pyrrolo[2,1-f][1,2,4]triazin-5-yl)piperidin-3-yl)-5-chloro-3-(2-oxo-2-(pyrrolidin-1-yl)ethoxy) thiophene-2-carboxamide]
3 | NC(=O)c1ccc(-c2cc(N3CCC[C@@H](NC(=O)c4ccc(Cl)s4)C3)c3c(N)ncnn23)cc1F [Example 139, (R)—N-(1-(4-amino-7-(4-carbamoyl-3-fluorophenyl)pyrrolo[2,1-f][1,2,4]triazin-5-yl)piperidin-3-yl)-5-chlorothiophene-2-carboxamide, TFA]
24 | CC(=O)N1CC=C(c2cc(N3CCC[C@@H](NC(=O)c4cc5cnccc5[nH]4)C3)c3c(N)ncnn23)C1 [Example 490, (R)-N-(1-(7-(1-acetyl-2,5-dihydro-1H-pyrrol-3-yl)-4-aminopyrrolo[2,1-f][1,2,4]triazin-5-yl)piperidin-3-yl)-1H-pyrrolo[3,2-c]pyridine-2-carboxamide]
1750 | CC(C)(C)OC(=O)N[C@@H]1CCCN(c2cc(-c3ccc(S(C)(=O)=O)cc3)n3ncnc(N)c23)C1 [Example 11, tert-butyl (R)-(1-(4-amino-7-(4-(methylsulfonyl)phenyl)pyrrolo[2,1-f][1,2,4]triazin-5-yl)piperidin-3-yl)carbamate]
99 | Cc1nc(-c2cc(C(=O)N3CC=C(c4cc(N5CCC[C@@H](NC(=O)c6ccc(Cl)s6)C5)c5c(N)ncnn45)C3)no2)cs1 [Example 884, (R)-N-(1-(4-amino-7-(1-(5-(2-methylthiazol-4-yl)isoxazole-3-carbony1)-2,5-dihydro-1H-pyrrol-3-yl)pyrrolo[2,1-f][1,2,4]triazin-5-y1)piperidin-3-y1)-5-chlorothiophene-2-carboxamide]
3 | CC(=O)N1CC=C(c2cc(N3CCC[C@@H](NC(=O)c4cc(C(C)C)[nH]n4)C3)c3c(N)ncnn23)C1 [Example 458, (R)-N-(1-(7-(1-acetyl-2,5-dihydro-1H-pyrrol-3-yl)-4-aminopyrrolo[2,1-f][1,2,4]triazin-5-yl)piperidin-3-yl)-5-isopropyl-1H-pyrazole-3-carboxamide]
3 | N#Cc1ncn(-c2ccc(-c3cc(N4CCC[C@@H](NC(=O)c5ccc(Cl)s5)C4)c4c(N)ncnn34)cn2)n1 [Example 250, (R)-N-(1-(4-amino-7-(6-(3-cyano-1H-1,2,4-triazol-1-yl)pyridin-3-yl)pyrrolo[2,1-f][1,2,4]triazin-5-yl)piperidin-3-yl)-5-chlorothiophone-2-carboxamide, TFA]
24 | CS(=O)(=O)c1ccc(-c2cc(N3CC[C@H](F)[C@@H](NC(=O)c4ccc(Cl)s4)C3)c3c(N)ncnn23)cc1 (relative stereo) [Example 144, rel-N-((3R,4R)-1-(4-amino-7-(4-(methylsulfonyl)phenyl)pyrrolo[2,1-f][1,2,4]triazin-5-yl)-4-fluoropiperidin-3-yl)-5-chlorothiophene-2-carboxamide, TFA]
13 | CC(=O)N1CC=C(c2cc(N3CCC[C@@H](NC(=O)c4cccc(C5CC5)n4)C3)c3c(N)ncnn23)C1 [Example 710, (R)-N-(1-(7-(1-acetyl-2,5-dihydro-1H-pyrrol-3-yl)-4-aminopyrrolo[2,1-f][1,2,4]triazin-5-yl)piperidin-3-yl)-6-cyclopropylpicolinamide,]
13 | CS(=O)(=O)c1ccc(-c2cc(N3CCC[C@@H](NC(=O)c4cc(Cl)ns4)C3)c3c(N)ncnn23)cc1 [Example 72, (R)-N-(1-(4-amino-7-(4-(methylsulfonyl)phenyl)pyrrolo[2,1-f][1,2,4]triazin-5-yl)piperidin-3-yl)-3-chloroisothiazole-5-carboxamide, TFA]
64 | CC(=O)N1CC=C(c2cc(N3CCC[C@@H](NC(=O)c4ccc5c(c4)OCO5)C3)c3c(N)ncnn23)C1 [Example 467, (R)-N-(1-(7-(1-acetyl-2,5-dihydro-1H-pyrrol-3-yl)-4-aminopyrrolo[2,1-f][1,2,4]triazin-5-yl)piperidin-3-yl)benzo[d][1,3]dioxole-5-carboxamide]
3 | CN(C)CCOc1cc(C(F)F)sc1C(=O)N[C@@H]1CCCN(c2cc(-c3ccnc(N)c3)n3ncnc(N)c23)C1 [Example 304, (R)-N-(1-(4-amino-7-(2-aminopyridin-4-yl)pyrrolo [2,1-f][1,2,4]triazin-5-yl)piperidin-3-yl)-5-(difluoromethyl)-3-(2-(dimethylamino)ethoxy) thiophene-2-carboxamide]
27 | CS(=O)(=O)c1ccc(-c2cc(N3CCC[C@@H](NC(=O)c4cccc(Br)c4)C3)c3c(N)ncnn23)cc1 [Example 85, (R)-N-(1-(4-amino-7-(4-(methylsulfonyl)phenyl)pyrrolo[2,1-f][1,2,4]triazin-5-yl)piperidin-3-yl)-3-bromobenzamide, TFA]
7 | N#Cc1ccc(-c2ccc(C(=O)N[C@@H]3CCCN(c4cc(-c5ccnc(C(F)F)c5)n5ncnc(N)c45)C3)s2)cc1 [Example 543, (R)-N-(1-(4-amino-7-(2-(difluoromethyl)pyridin-4-yl)pyrrolo[2,1-f][1,2,4]triazin-5-yl)piperidin-3-yl)-5-(4-cyanophenyl)thiophene-2-carboxamide]
20 | CC(=O)Nc1cccc(-c2cc(N3CCC[C@@H](NC(=O)c4ccc(Cl)s4)C3)c3c(N)ncnn23)c1 [Example 208, (R)-N-(1-(7-(3-acetamidophenyl)-4-aminopyrrolo[2,1-f][1,2,4]triazin-5-yl)piperidin-3-yl)-5-chlorothiophene-2-carboxamide]
117 | CC(=O)N1CC=C(c2cc(N3CCC[C@@H](NC(=O)c4sc5ccc(C#N)cc5c4OC4CCN(C(=O)OC(C)(C)C)CC4)C3)c3c(N)ncnn23)C1 [Example 676, tert-butyl (R)-4-((2-((1-(7-(1-acetyl-2,5-dihydro-1H-pyrrol-3-yl)-4-aminopyrrolo[2,1-f][1,2,4]triazin-5-yl)piperidin-3-yl)carbamoyl)-5-cyanobenzo[b]thiophen-3-yl)oxy)piperidine-1-carboxylate]
21 | CC(=O)N1CC=C(c2cc(N3CCC[C@@H](NC(=O)c4cccc(N5CCN(C)CC5)c4)C3)c3c(N)ncnn23)C1 [Example 735, (R)-N-(1-(7-(1-acetyl-2,5-dihydro-1H-pyrrol-3-yl)-4-aminopyrrolo[2,1-f][1,2,4]triazin-5-yl)piperidin-3-yl)-3-(4-methylpiperazin-1-yl)benzamide]
267 | CC(=O)N1CC=C(c2cc(N3CCC[C@@H](NC(=O)c4cccnc4OCCN(C)C)C3)c3c(N)ncnn23)C1 [Example 723, (R)-N-(1-(7-(1-acetyl-2,5-dihydro-1H-pyrrol-3-yl)-4-aminopyrrolo[2,1-f][1,2,4]triazin-5-yl)piperidin-3-yl)-2-(2-(dimethylamino)ethoxy) nicotinamide]
7 | CC(=O)N1CC=C(c2cc(N3CCCC(NC(=O)c4sc(Cl)cc4OC4CC5CC4CN5C)C3)c3c(N)ncnn23)C1 (single isomer, unassigned) [Example 609]
17 | CC(=O)N1CC=C(c2cc(N3CCC[C@@H](NC(=O)c4cccc(N5CC(C)(O)C5)n4)C3)c3c(N)ncnn23)C1 [Example 771, (R)-N-(1-(7-(1-acetyl-2,5-dihydro-1H-pyrrol-3-yl)-4-aminopyrrolo[2,1-f][1,2,4]triazin-5-yl)piperidin-3-yl)-6-(3-hydroxy-3-methylazetidin-1-yl)picolinamide]
14 | CC(=O)NCCOc1cc(C(F)F)sc1C(=O)N[C@@H]1CCCN(c2cc(-c3ccc(C#N)nc3)n3ncnc(N)c23)C1 [Example 425, (R)-3-(2-acetamidocthoxy)-N-(1-(4-amino-7-(6-cyanopyridin-3-yl)pyrrolo[2,1-f][1,2,4]triazin-5-yl)piperidin-3-yl)-5-(difluoromethyl)thiophene-2-carboxamide]
193 | N=c1ccc(-c2cc(N3CCC[C@@H](NC(=O)c4ccc(Cl)s4)C3)c3c(N)ncnn23)cn1C(F)F [Example 683]
85 | COC(=O)N1CC=C(c2cc(N3CCC[C@@H](NC(=O)c4sc5ccccc5c4OC4CNC4)C3)c3c(N)ncnn23)C1 [Example 674, methyl (R)-3-(4-amino-5-(3-(3-(azetidin-3-yloxy)benzo[b]thiophene-2-carboxamido)piperidin-1-yl)pyrrolo[2,1-f][1,2,4]triazin-7-yl)-2,5-dihydro-1H-pyrrole-1-carboxylate]

Compound | IC50 [nM]
CC(=O)N1CC=C(c2cc(N3CCC[C@@H](NC(=O)c4sc(Cl)cc4OC4CC(N(C)C)C4)C3)c3c(N)ncnn23)C1 (stereo partly drawn) [Example 598, (R)-N-(1-(7-(1-acetyl-2,5-dihydro-1H-pyrrol-3-yl)-4-aminopyrrolo[2,1-f][1,2,4]triazin-5-y1)piperidin-3-y1)-5-chloro-3-(3-(dimethylamino)cyclobutoxy)thiophenc-2-carboxamide] | 6
